From patent US11773368B2, “Culture method for differentiating primordial germ cells into functionally mature oocytes” (TOKYO UNIVERSITY OF AGRICULTURE, priority 2015, dated 2023)

Tested on: in vitro-matured eggs
Test: In vitro fertilization and embryo transfer with in vitro-mature egg
Assay type: cell-based, mouse
Protocol: After 17 hours of the culture, the eggs with expanded cumulus cells were transferred into TYH medium (LSI Medience Corporation) and fertilized with epididymal sperm. In (ii) SPS group, (iv) FBS/SPS group, (v) FBS/ICI group, about 27 to 58% of eggs which processed for in vitro fertilization (IVF) were normally fertilized. Normally fertilized eggs with 2 pronuclei were cultured in KSOM medium. About 83 to 97% Embryos from the fertilized eggs developed to the 2-cell stage. The embryos developed to the 2-cell stage by the culture were transferred into the oviducts of pseudopregnant females at 0.5 dpc. Offspring were delivered by natural means or by caesarean section at 19.5 dpc. As a result, about 14 to 40% of the transferred embryos developed to offspring. The obtained offspring were raised by foster mothers. The offspring were weaned at about 4 weeks of age. […] As mentioned above, there has been no report that eggs obtained by in vitro culture in which the primordial germ cell was used as the starting material developed to offspring. […] In in vitro culture method for producing the functional egg from the primordial germ cell according to this invention, seven pups from one ovary were obtained at a maximum, and on average, 0.3 to 3.3 pups were obtained from one ovary. Pups were physically normal, and they developed normally. Male and female mice developed from eggs differentiated and matured in in vitro culture could produce the offspring after sexual maturation (Table. 2 and FIG. 12).

[1] = FBS/1 μM ICI group (ICI day 5-11)
[2] = FBS/1 μM ICI group (ICI day 5-11), 19 cultured gonads
[3] = FBS/5 μM ICI group (ICI day 5-11)
[4] = FBS/5 μM ICI group (ICI day 5-11), 6 cultured gonads
[5] = FBS/10 μM ICI group (ICI day 5-11)
[6] = FBS/10 μM ICI group (ICI day 5-11), 6 cultured gonads
[7] = Vitrification FBS/1 μM ICI (vitrified-warmed gonads)
[8] = Vitrification FBS/1 μM ICI (vitrified-warmed gonads), 4 cultured gonads

With C[C@]12CC[C@@H]3c4ccc(O)cc4C[C@@H](CCCCCCCCC[S+]([O-])CCCC(F)(F)C(F)(F)F)[C@H]3[C@@H]1CC[C@@H]2O (stereo partly drawn) [ICI, 7α, 17β-[9-([4,4,5,5,5-pentafluoropentyl]sulfinyl)nonyl]estra-1,3,5(10)-triene-3,17-diol] the “No. of eggs fertilized normally, proportion to the number of collected follicles” value [1] was 26.2%, the “No. of embryos developed to two-cell, proportion to the number of collected follicles” value [1] was 24.2% and the “No. of pups developed from embryos, proportion to the number of collected follicles” value (from here on “No. of pups developed … of collected follicles”) [1] was 4.8%. For the same molecule, the “No. of pups from an ovary” value [1] was 1.6, the “No. of eggs fertilized normally” value [2] was 168 and the “No. of embryos developed to two-cell” value [2] was 155. For the same molecule, the “No. of pups developed from embryos” value [2] was 31, the “No. of eggs fertilized normally, proportion to the number of collected follicles” value [3] was 30.1% and the “No. of embryos developed to two-cell, proportion to the number of collected follicles” value [3] was 29.2%. For the same molecule, the “No. of pups developed … of collected follicles” value [3] was 6.4%, the “No. of pups from an ovary” value [3] was 3.3 and the “No. of eggs fertilized normally” value [4] was 94. For the same molecule, the “No. of embryos developed to two-cell” value [4] was 91, the “No. of pups developed from embryos” value [4] was 20 and the “No. of eggs fertilized normally, proportion to the number of collected follicles” value [5] was 29.3%. For the same molecule, the “No. of embryos developed to two-cell, proportion to the number of collected follicles” value [5] was 27.3%, the “No. of pups developed … of collected follicles” value [5] was 3.8% and the “No. of pups from an ovary” value [5] was 3.2. For the same molecule, the “No. of eggs fertilized normally” value [6] was 148, the “No. of embryos developed to two-cell” value [6] was 138 and the “No. of pups developed from embryos” value [6] was 19. For the same molecule, the “No. of eggs fertilized normally, proportion to the number of collected follicles” value [7] was 33.3%, the “No. of embryos developed to two-cell, proportion to the number of collected follicles” value [7] was 26.3% and the “No. of pups developed … of collected follicles” value [7] was 3.5%. For the same molecule, the “No. of pups from an ovary” value [7] was 0.5, the “No. of eggs fertilized normally” value [8] was 19 and the “No. of embryos developed to two-cell” value [8] was 15. For the same molecule, the “No. of pups developed from embryos” value [8] was 2.
